Entries after “also recorded” stand apart in the source; their conditions may differ. Like-named read-outs stand apart in the source and are kept apart here.
How the values were obtained:
[1] = system: DRO cells; assay: Western blot of RhoB, RhoA, p21, cyclin E polypeptides in DRO cells; format: cell-based, human
Description: RhoB and p21^WAF1/CIP1 polypeptide expression also was examined in ATC cells to determine the time course of induction of each polypeptide following stimulation with a PPARγ agonist (FIG. 6). […]. Polypeptide lysates were prepared and examined for RhoB, RhoA and β-actin expression. […]; FIG. 6A).
The time course for induction of RhoB and p21^WAF1/CIP1 was determined using Western blotting.
(§1) DRO90-1 (DRO) and ARO81 (ARO) cells were derived from primary cultures of human anaplastic thyroid carcinoma tumors that were obtained from Dr. G. J. Juillard (University of California-Los Angeles, Los Angeles, Calif.), and KTC-2 and KTC3 cells were obtained from Dr. Junichi Kurebayashi (Podtcheko et al., J. Clin. Endocrinol. Metab., 88:1889-1896 (2003) and Pushkarev et al., Molecular mechanisms of the Effects of Low Concentrations of Taxol in Anaplastic Thyroid Cancer Cells. Endocrinology: en. 2004-0127 (2004)). Cells were cultured in RPMI 1640 medium (Cellgro, Herndon Va.) supplemented with 10% charcoal-stripped fetal bovine serum (Hyclone), non-essential amino acids, sodium pyruvate, and penicillin-streptomycin-amphotericin B at 37° C. in a humidified atmosphere with 5% CO^2. Charcoal-stripped serum was used to exclude endogenous PPAR ligands contained in serum. For proliferation studies, cells were plated in triplicate in 12-well culture plates at initial concentrations of 2×10^4 cells/well. After overnight incubation, cells were treated with 10 nM RS5444 or DMSO diluent (Sigma) for 6 days with medium, and drug changed every 48 hours. After 6 days, cells were washed with PBS (Cellgro), trypsinized, and counted by Beckman Coulter Counter (Beckman Instruments, Fullerton Calif.). For morphology studies, cells were plated in 12 well plates at initial concentrations of 2.5×10^4 cells/well. Cells were treated with either DMSO or 10 nM RS5444 (24 hours). After treatment, phase images were obtained on an inverted microscope. For real time PCR studies, cells were plated in 60 mm plates at 50% confluence and treated with 10 nM RS5444 for indicated incubation periods. […].
Cells were collected and lysed in RIPA buffer containing 50 mM Tris, 5 mM EDTA, 150 mM NaCl, 0.1% SDS, 0.5% Deoxycholate, 1% NP40, and protease inhibitor cocktail (Roche) followed by centrifugation. Excised tumor tissues were lysed in 50 mM Tris pH 8.0+1% SDS. Collected supernatants were, analyzed for protein concentration using Pierce's BCA assay, with 25 μg protein loaded per gel lane (Invitrogen) with later transfer to Immobilon-P membranes. The membranes were hybridized with antibodies (Santa Cruz, Cell Signaling, Sigma-Aldrich, St. Louis Mo.) as indicated overnight at 4° C. followed by treatment with species-specific horseradish peroxidase IgG (Jackson labs) for 45 minutes at room temperature. Detection was performed using Supersignal West Pico chemoluminescence kit (Pierce). Quantification of bands was performed in triplicate using Image Quant 5.2 (Molecular Dynamics, Sunnyvale Calif.).

[2] = system: DRO cells; assay: DRO cell proliferation (cell counts over six days); format: cell-based, human; details: for IC50: Homo sapiens
Description: . Cells were treated every 48 hours over six days. Cell numbers were counted and data were plotted as mean values ±S.D. The thiazolidinediones inhibited cell proliferation of DRO cells in a dose responsive fashion (FIG. 3B). […]. The EC50 concentrations were in close agreement with the IC50 concentrations for each compound (FIG. 3B).
. […] Cell numbers were counted and data were plotted as mean values ±S.D. (FIG. 9D).
as §1, with “[…].” for “For morphology studies, cells were plated in 12 well plates at initial concentrations of 2.5×10^4 cells/well.”
Cells were either plated in triplicate at 7.5×10^4 cells/mL in 6-well plates or 2×10^4 cells/well in 12-well plates, allowed to adhere overnight, and then transfected for 24 to 72 hours with 2 to 5 μg of either scrambled, p21^WAF1/CIP1 (1022539), RhoB (SI00058933) or PPAR-γ-specific siRNA duplexes (Qiagen Valencia, Calif.) using RNAiFect reagent (Qiagen). The DNA target sequence for PPAR-γ was 5′-[…]-3′. After transfection, cells in the 6-well plates were treated with either DMSO diluent or 10 nM RS5444 for 24 hours and then analyzed by either real time PCR or immunoblotting. Cells in the 12-well plates were exposed for 6 days with medium, and drug changed every 48 hours. After 6 days, cells were washed with PBS (Cellgro), trypsinized, and counted by Beckman Coulter Counter.

[3] = target: T1, PPARγ (Homo sapiens, UniProt P37231); assay: PPRE3-tk-luc reporter (dual luciferase) assay in DRO cells; format: cell-based; design: endogenous in cells; host or cells: DRO90-1 (DRO) human anaplastic thyroid carcinoma cells
T1 sequence (P37231 1-505): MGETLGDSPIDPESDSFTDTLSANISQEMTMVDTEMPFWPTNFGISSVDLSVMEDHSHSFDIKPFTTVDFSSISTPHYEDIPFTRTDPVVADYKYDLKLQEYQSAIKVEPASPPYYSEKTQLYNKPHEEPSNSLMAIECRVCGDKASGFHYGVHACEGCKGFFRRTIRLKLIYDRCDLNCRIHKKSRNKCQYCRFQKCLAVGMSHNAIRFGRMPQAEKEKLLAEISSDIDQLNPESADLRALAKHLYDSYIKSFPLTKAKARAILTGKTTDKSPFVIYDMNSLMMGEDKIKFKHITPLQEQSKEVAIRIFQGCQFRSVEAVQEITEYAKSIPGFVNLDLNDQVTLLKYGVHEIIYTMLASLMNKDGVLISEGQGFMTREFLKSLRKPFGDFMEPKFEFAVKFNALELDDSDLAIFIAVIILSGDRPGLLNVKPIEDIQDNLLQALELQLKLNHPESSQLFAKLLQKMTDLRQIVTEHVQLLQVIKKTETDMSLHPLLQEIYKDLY
Description: The effects of PPARγ agonists on DRO cells were investigated. […] Firefly luciferase activity was normalized to renilla […] activity (RLU) and plotted as mean values ±S.D. (FIG. 3A).
Cells were transfected with siRNA for 72 hours followed by transfected with a PPRE3-tk-luc reporter and treatment with 10 nM RS5444 for 24 hours. […] Cotransfection with renilla luciferase allowed for normalization to relative light units (RLU).
Cells were plated in 6-well culture plates at initial concentrations of 2×10^5 cells/well. After overnight incubation, cells were transfected with PPRE/luc and CMV/renilla luciferase plasmid using Lipofectamine 2000 (Invitrogen), and after 24 hours, cells were treated with PPAR-γ agonists at indicated concentrations. After 24 hours of drug treatments, cells were washed with PBS and lysed in 1× reporter lysis buffer (Roche), and luciferase activity was measured with a Dual Luciferase assay kit (Promega, Madison Wis.) with a luminometer (Veritas/Turner Biosystems). The enzyme activity was normalized for efficiency of transfection on the basis of renilla activity levels and reported as relative light units (RLU).

[4] = DRO cells treated every 48 hours over six days, read-out: IC50, concentration at which 50% of cell proliferation was inhibited

With `COC(=O)[C@H](CCSC)NC(=O)c1ccc(NC[C@@H](N)CS)cc1-c1ccccc1` [FTI-277] the “RhoB and p21 expression (Western blot)” value ([1]; 24 hours, 10 nM RS5444, 1 ng/mL FK-228, 10 μM FTI-277) was “upregulation of both RhoB and p21 expression” and the “inhibition of cell proliferation with RhoB vs scrambled siRNA” value ([2]; DRO cells transfected with RhoB or scrambled siRNA, treated every 48 hours for 6 days) was “dependent upon the upregulation of RhoB polypeptide to inhibit cell proliferation”.

For `O=C(Nc1ccccc1)c1cc([N+](=O)[O-])ccc1Cl` [GW9662], the “effect on RS5444 inducible luciferase activity” value ([3]; 10 μM GW9662 followed by 10 nM RS5444 one hour later) was “complete loss of RS5444 inducible luciferase activity”, the “effect on agonist activation of PPARγ-induced luciferase activity” value ([3]; DRO cells pretreated 5 minutes with 10 μM GW9662 before 10 nM RS5444, 1 μM rosiglitazone or 10 μM troglitazone) was “abolished” and the “effect of antagonist on RS5444-induced RhoB polypeptide expression” value ([1]; GW9662 plus 10 nM RS5444, 24 hours) was “abolished; also recorded: blocked the ability of RS5444 to elevate RhoB polypeptide expression”. For the same compound, the “effect on growth inhibition by TZDs” value ([2]; DRO cells pretreated one hour with 10 μM GW9662 before 10 nM RS5444, 1 μM rosiglitazone or 10 μM troglitazone, every 48 hours over six days) was “no longer growth inhibited”.

`CN(CCOc1ccc(CC2SC(=O)NC2=O)cc1)c1ccccn1` (stereo not drawn) [rosiglitazone] gave an IC50 [2, 4] of about 75 nM.

Compound `Cc1c(C)c2c(c(C)c1O)CCC(C)(COc1ccc(CC3SC(=O)NC3=O)cc1)O2` (stereo not drawn) [troglitazone] has an IC50 ([2]; DRO cells treated every 48 hours for six days (FIG. 3B legend), read-out: IC50, DRO cell number) of about 1400 nM and an IC50 [2, 4] of about 1410 nM.

From patent publication US20080167532A1, “ASSESSING CANCER TREATMENT RESPONSIVENESS” (Mayo Foundation for Medical Education and Research, priority 2006, published 2008)
